Patent US20220257727A1, “PHARMACEUTICAL COMPOSITION CONTAINING LYSOZYME AND USE THEREOF” (GUANGZHOU CENTURY CLINICAL RESEARCH., LTD., priority 2019, published 2022)

Key:
psoriasis [1] = assay: Case studies of patients with drug-resistant psoriasis (PASI score, skin state, recurrence, tolerability)
From the text: (§1) Psoriasis can be divided into mild, moderate, and severe according to the severity. The severity can be determined by PASI (Psoriasis Area Severity Index) scores. PASI is a set of scoring indicators that are widely used internationally to reflect the severity of psoriasis. In the scoring system, four parts, i.e., the head, upper limbs, torso, and lower limbs, are used for comprehensive scoring according to indicators such as erythema, desquamation, infiltration, and area of involvement. The higher the score, the more severe the condition of psoriasis. The specific scoring rules are well known in the field of medical diagnosis.
(§2) Ineffective: The PASI score of psoriasis after treatment is more than 50% of the score before treatment, namely, PASI after treatment÷PASI before treatment×100%>50%.

psoriasis [2] = conditions: human, in vivo
From the text: as §1, §2

[3] = Example 4, person, tretinoin cream, calcipotriol ointment and other treatments
[4] = Example 4, after tretinoin cream, calcipotriol ointment and other treatments
[5] = Example 6, person, tretinoin cream, calcipotriol ointment, methotrexate tablets and other treatments in the past
[6] = Example 6, after tretinoin cream, calcipotriol ointment, methotrexate tablets and other treatments, severe psoriasis
[7] = Example 7, after secukinumab treatment

`CCOC(=O)c1ccc(C#Cc2ccc3c(c2)C(C)(C)CCS3)nc1` [tazarotene cream, tazarotene] was tested, and the “effect of treatment” value (psoriasis [1]; Example 5, person, two months of treatment) was “ineffective”.

With `C=C1/C(=C\C=C2/CCC[C@]3(C)[C@@H]([C@H](C)/C=C/[C@@H](O)C4CC4)CC[C@@H]23)C[C@@H](O)C[C@@H]1O` [calcipotriol ointment, calcipotriol] the PASI score (psoriasis [1]; Example 3, person, after 1 month of use) was 5.3, the “PASI improvement vs before treatment” value (psoriasis [1]; Example 3, after 1 month of use) was 10% and the “effect of treatment” value (psoriasis [1]; [3]) was “healed”. For the same compound, the “relapse” value (psoriasis [1]; [4]) was “relapsed three months after the drug withdrawal”, the “effect of treatment” value (psoriasis [1]; [5]) was “not alleviated” and the PASI score (psoriasis [1]; [6]) was 13.8. The skin irritation (psoriasis [2]) was “severe”.

Adalimumab gave a PASI decrease (psoriasis [1]; Example 6, after one course of treatment, PASI before 13.8) of 32%.

With secukinumab: IL-17 inhibitor the PASI decrease (psoriasis [1]; [7]) was 10%, the PASI score (psoriasis [1]; [7]) was 8.7 and the “tolerability” value (psoriasis [2]) was “intolerance occurred”.

In the case of `CN(Cc1cnc2nc(N)nc(N)c2n1)c1ccc(C(=O)N[C@@H](CCC(=O)O)C(=O)O)cc1` [methotrexate tablets, methotrexate], the “relapse” value (psoriasis [1]; Example 3, after relief, within two years follow-up) is reported as “relapsed twice”, the “effect of treatment” value (psoriasis [1]; Example 3, taken after lysozyme buccal tablets withdrawal, self-reported) is reported as “the psoriasis was relieved” and the PASI score (psoriasis [1]; Example 4, after oral methotrexate treatment) is reported as 9.3. The “effect of treatment” value (psoriasis [1]; Example 4, oral treatment after relapse) was “the condition was not alleviated”, the “effect of treatment” value (psoriasis [1]; [5]) was “not alleviated” and the PASI score (psoriasis [1]; [6]) was 13.8.

In the case of `CC1=C(/C=C/C(C)=C/C=C/C(C)=C/C(=O)O)C(C)(C)CCC1` [tretinoin cream, tretinoin], the “effect of treatment” value (psoriasis [1]; [3]) is reported as “healed”, the “relapse” value (psoriasis [1]; [4]) is reported as “relapsed three months after the drug withdrawal” and the “effect of treatment” value (psoriasis [1]; [5]) is reported as “not alleviated”. For the same compound, the PASI score (psoriasis [1]; [6]) was 13.8.
